A short description of data set [1]: Ultraviolet absorption spectrum (spectrophotometer, quartz cell, optical path 10 mm). The class given is physicochemical. As for the experimental part: The measurement was carried out by using a spectrophotometer (UV-200S, made by SHIMADZU CORPORATION) as an ethanol solution of the sample having a suitable concentration with a quartz cell having an optical path of 10 mm. Also, the wavelength at the maximum absorption and the molar extinction coefficient were found from the results of the measurement as the ultraviolet absorptive properties. The results are shown below. • Wavelength at the maximum absorption: 332 nm Molar extinction coefficient: 44,000
The measurement was carried out by using a spectrophotometer (UV-200S, made by SHIMADZU CORPORATION), as a dimethylformamide solution of the sample having a suitable concentration and with a quartz cell having an optical path of 10 mm.
The measurement was carried out by using a spectrophotometer (UV-200S, made by SHIMADZU CORPORATION), as a dimethylformamide solution of the sample having a suitable concentration, with a quartz cell having an optical path of 10 mm.

Another data set deals with guinea pigs. As to the kind of experiment: Sunscreen effect against ultraviolet irradiation of the skin. The class given is in vivo. The note with it: sunscreen ointment or lotion containing the derivative, about 2 mg per 1 cm^2, ultraviolet rays 10 minutes, judged after 24 hours with the naked eyes; control area turned red. As for the experimental part: Hair of. the notal of three guinea pigs was cut, and the drug (ointment) was applied in an amount of about 2 mg per 1 cm^2. Then, ultraviolet rays were irradiated for 10 minutes by a fluorescent light (FL-20SE, made by TOSHIBA CORPORATION) from a height of 10 cm from the notal.. On the other hand, as a control area, a base prepared without mixing the sunscreening agent was applied, and treatments were carried out in the same manner as.above. The judgement was conducted after 24 hours with the naked eyes.
Hair of the notal of three guinea pigs was cut, and the drug (ointment) was applied in an amount of about 2 mg per 1 cm^2.. Then, ultraviolet rays were irradiated for 10 minutes by a fluorescent light (FL-20SE, made by TOSHIBA CORPORATION) from a height of 10 cm from the notal. On the other hand, as a control area, a base prepared without mixing the sunscreening agent was applied, and treatments were carried out in the same manner as above. The judgement was conducted after 24 hours with the naked eyes.

The nature of data set [2]: Transmittance of ultraviolet rays through a coated polyethylene sheet. The class given is physicochemical. To be noted: wavelength of 330 nm. As for the experimental part: There was dissolved 2.8 g of p-vinylbenzaldehyde 4-carboxymethyl-2-methylthiosemicarbazone in 1.5 g of triethanolamine and 23.7 g of water. The solution was applied onto a polyethylene sheet having a thickness of 0.5 mm (which was prepared in the same manner as the preparation process for the'control pieces in Example 11) in an amount of 2.0 mg/cm^2, and dried at room temperature to give a ultraviolet absorbent sheet.
The obtained ultraviolet absorbent sheet and untreated polyethylene sheet were cut into pieces having a size of 1 cm X 4 cm, respectively. The untreated polyethylene sheet was used as control piece, and transmittance of ultraviolet rays at a wavelength of 330 nm was measured by using a spectrophotometer. As the result, the transmittance of ultraviolet rays of the ultraviolet absorbent sheet was not more than 0.1 %. Accordingly, it was confirmed that not less than 99.9 % of ultraviolet rays were absorbed under the above condition.

Another data set relates to skin of a quinea pig. As to the kind of experiment: Percutaneous absorption, Franz diffusion cell. The class given is in vitro ADME. To be noted: 1 % aqueous solution, 33°C, 20 hours. As for the experimental part: The skin of a quinea pig was peeled, washed with physiological saline and then set in a percutaneous absorption apparatus which was made in accordance with the description in Franz, T. J, J. Invest, Dermatol, 64, 190, 1975, by using a diffusion cell. The sample room was filled with 0.5 mi of a 1 % aqueous solution of the polystyrene derivative, and the acceptor was filled with physiological saline. After maintaining at 33°C for 20 hours while stirring with a magnetic stirrer, the physiological saline in the acceptor was taken out, and the ultraviolet absorbency was measured. In the same manner as above, ultraviolet absorbency was measured, using water alone as a negative control substance and a 1 % aqueous solution of p-aminobenzoic acid as a positive control substance. […] To the contrary, the spectrum of the positive control substance was shown the corresponding to an amount of 87.0 ppm of the compound.
The skin of a quinea pig was peeled, washed with physiological saline and then set in a percutaneous absorption apparatus which was made in accordance with the description in Franz, T. J, J. Invest, Dermatol, 64, 190, 1975, by using a diffusion cell. […] After maintaining at 33°C for 20 hours while stirring with a magnetic stirrer, the physiological saline in the acceptor was taken out, and the ultraviolet absorbency was measured. […]

Setting [3] is: ethanol solution, at the maximum absorption.
The mark [4] stands for this setting: commercially available sunscreening agent, at the first (shorter) maximum.
[5] abbreviates: commercially available sunscreening agent, at the second (longer) maximum.
Setting [6] is: commercially available sunscreening agent, first (shorter) maximum.
Setting [7] is: commercially available sunscreening agent, second (longer) maximum.
The mark [8] stands for this setting: N,N-dimethylformamide solution, at the maximum absorption.
Setting [9] is: commercially available sunscreening agent, solvent not stated.

“And” between values parts separate entries of the source, which are not always exact repeats. Equal entries are not always repeated.

Take `C=Cc1ccc(C=NN(C)C(=S)N(C)C)cc1` [Example 8, p-vinylbenzaldehyde 2,4,4-trimethylthiosemicarbazone]: the “Wavelength at the maximum absorption” value in data set [1] (ethanol solution) turned out to be 331 nm. For the same compound, the Molar extinction coefficient in data set [1] (setting [3]) is given as 29,000.

Regarding `C=Cc1ccc(C=NN(CC(=O)OCC)C(=S)N(C)C)cc1` [Example 6, p-vinylbenzaldehyde 2-ethoxycarbonylmethyl-4,4-dimethylthiosemicarbazone], in data set [1] (ethanol solution), the “Wavelength at the maximum absorption” value is on record as 381 nm. Besides, the Molar extinction coefficient in data set [1] (setting [3]) is reported as 34,000.

On to `C=Cc1ccc(C=NN(C)C(=S)NCC(=O)OC)cc1` [Example 1, p-vinylbenzaldehyde 4-methoxycarbonylmethyl-2-methylthiosemicarbazone], for which the “Wavelength at the maximum absorption” value in data set [1] (ethanol solution) was determined as 332 nm. Further, in data set [1] (setting [3]), the Molar extinction coefficient is 44,000.

`C=Cc1ccc(C=NN(CCCC(=O)O)C(=S)NC)cc1` [Example 5, p-vinylbenzaldehyde 2-(y-carboxypropyl)-4-methylthiosemicarbazone]: the “Wavelength at the maximum absorption” value in data set [1] (ethanol solution) was 332 nm. Also, the Molar extinction coefficient in data set [1] (setting [3]) was 38,000.

As for `C=Cc1ccc(C=NN(C)C(=O)NCC(=O)OCC)cc1` [Example 3, p-vinylbenzaldehyde 4-ethoxy carbonylmethyl-2-methylsemicarbazone], the “Wavelength at the maximum absorption” value in data set [1] (ethanol solution) is reported as 311 nm. The Molar extinction coefficient in data set [1] (setting [3]) is listed as 33,000. Further, the “sunscreen effect (color of the applied area compared with an area not irradiated)” value with guinea pigs was “the color in the area on which the sunscreen lotion was applied was not changed”.

`Cc1ccc(O)c(-n2nc3ccccc3n2)c1` [2-(2'-hydroxy-5'-methylphenylbenzotriazole), reference compound]: the molar extinction coefficients was 12,000 in data set [1] (setting [4]) and 13,000 in data set [1] (setting [5]). Besides, the entries for the “wavelengths at the maximum absorption” value in data set [1] (setting [6]) and in data set [1] (setting [7]) were 297 nm and 337 nm, respectively.

As to `C=Cc1ccc(C=NN(CCO)C(=S)NC)cc1` [Example 9, p-vinylbenzaldehyde 2-(β-hydroxyethyl)-4-methylthiosemicarbazone], the “Wavelength at the maximum absorption” value in data set [1] (ethanol solution) is listed as 322 nm. The Molar extinction coefficient in data set [1] (setting [3]) is 40,000.

`C=Cc1ccc(C=NN(C)C(=S)NCC(=O)O)cc1` [Example 2, p-vinylbenzaldehyde 4-carboxymethyl-2-methylthiosemicarbazone]: in data set [1] (ethanol solution), the “Wavelength at the maximum absorption” value stood at 332 nm. Also, the Molar extinction coefficient in data set [1] (setting [3]) is listed as 44,000. Also, in data set [2] (same coated sheet), the ultraviolet rays absorbed result is recorded as “not less than 99.9%”. Moreover, in data set [2] (triethanolamine/water solution applied at 2.0 mg/cm^2 on 0.5 mm polyethylene sheet), the “transmittance of ultraviolet rays” value is listed as “not more than 0.1%”.

Take `Nc1ccc(C(=O)O)cc1` [p-aminobenzoic acid]: in the data set with skin of a quinea pig, the “amount of the compound in the acceptor corresponding to the spectrum” value is 87.0 ppm and 93.0 ppm.

With `C=Cc1ccc(C=NN(CC(=O)O)C(=S)NC)cc1` [Example 4, vinylbenzaldehyde 2-carboxymethyl-4-methylthiosemicarbazone], the “Wavelength at the maximum absorption” value in data set [1] (ethanol solution) turned out to be 315 nm. Besides, in data set [1] (setting [3]), the Molar extinction coefficient was 34,000.

As to `C=Cc1ccc(C=NN(C)C(=S)NC)cc1` [Example 7, vinylbenzaldehyde 2,4-dimethylthiosemicarbazone], the “Wavelength at the maximum absorption” value in data set [1] (ethanol solution) is on record as 315 nm. Moreover, the Molar extinction coefficient in data set [1] (setting [3]) is reported as 34,000.

In the case of `C=Cc1ccc(C=NN(C(=S)NC)c2ccccc2)cc1` [Example 11, p-vinylbenzaldehyde 4-methyl-2-phenylthiosemicarbazone], the “Wavelength at the maximum absorption” value in data set [1] (N,N-dimethylformamide solution) was found to be 335 nm. Moreover, the Molar extinction coefficient in data set [1] (setting [8]) was 38,000.

As to `COc1ccc(C(=O)c2ccccc2)c(O)c1` [2-hydroxy-4-methoxybenzophenone, reference compound], the molar extinction coefficients is on record as 13,000 in data set [1] (setting [4]) and 8,200 in data set [1] (setting [5]). The entries for the “wavelengths at the maximum absorption” value in data set [1] (setting [6]) and in data set [1] (setting [7]) were 287 nm and 326 nm, respectively.

For the compound `CC1CC(OC(=O)c2ccccc2O)CC(C)(C)C1` (stereo not drawn) [homomenthyl salicylate, reference compound], in data set [1] (setting [9]), the Molar extinction coefficient was 4,400 and the “Wavelength at the maximum absorption” value is 308 nm.

Regarding `C=Cc1ccc(C=NN(C)C(=S)Nc2ccccc2)cc1` [Example 12, p-vinylbenzaldehyde 2-methyl-4-phenylthiosemicarbazone], the “Wavelength at the maximum absorption” value in data set [1] (N,N-dimethylformamide solution) was determined as 338 nm. Also, the Molar extinction coefficient in data set [1] (setting [8]) is 40,000.
